Experiments:
[1] = tested on: human embryonic kidney cells (HEK-293T); test: MTT cytotoxic activity assay, HEK-293T healthy cells, 72 h; assay type: cell-based; conditions: HEK-293T healthy cell line
Source text: (§1) Cancer treatment often damages healthy cells and tissues. Every treatment has important and diverse side effects; these depend mainly on the type and extent of treatment, are not the same for everyone, and may even vary from one treatment to another in the same person. While most cancer patients receiving chemotherapy lose hair during the treatment process, other side effects vary depending on the type of drug. Therefore, the discovery of new drugs with side effects lower than those of the chemotherapeutic agents used in treatment has become an important focus of cancer research. In the present study, the cytotoxic activities of new compounds (1–18) and cisplatin were tested in prostate and colon cancer cell lines and healthy embryonic kidney cell line for 72 h.
To determine whether all of the prepared substances had selectivity for healthy cells, the compounds were tested against HEK-293T cells at the same concentrations as those applied to cancer cells. […] Changes in the cell viability ratio depending on concentrations of the tested compounds (1–18) and cisplatin are given below (Figure 3).
(§2) The PC3 and DLD-1 cell lines were purchased from the American Type Culture Collection. The PC3, DLD-1, and HEK-293T cells were seeded in 96-well plates at a density of 5 × 10^3 cells/well for cytotoxic activity studies.[36]−[38] Cells were exposed to compounds at concentrations of 300, 150, 75, and 37.5 μM after 24 h. The 50 μL (5 mg/mL) amount of MTT stock solution was added to wells after 72 h and incubated for a further 2 h. The absorbance values were measured by using an Epoch 2 ELISA plate reader at 590 nm.

[2] = tested on: human prostate cancer cells (PC3); test: MTT cytotoxic activity assay, PC3 cells, 72 h; assay type: cell-based
Source text: as §1, §2

[3] = tested on: human colon cancer cells (DLD-1); test: MTT cytotoxic activity assay, DLD-1 cells, 72 h; assay type: cell-based; conditions: DLD-1 cell line
Source text: as §1, §2

[4] = Homo sapiens, PC-3, PC3 cell line

Structure (SMILES) | IC50 [1] [µM] | IC50 [2, 4] [µM] | IC50 ([3]; Homo sapiens) [µM] | melting point [°C] | IC50 ([2]; PC3 cell line) [µM] | IC50 [3] [µM]
O=Cc1ccccc1OS(=O)(=O)c1ccc(C(F)(F)F)cc1 [Compound 1] | 19.5 ± 1.57 | 14.3 ± 1.87 | 22.5 ± 2.6 | 83 to 84 | – | –
O=Cc1cccc(OS(=O)(=O)c2ccc(C(F)(F)F)cc2)c1 [Compound 2] | 60 ± 4.81 | 24.5 ± 2.09 | 41.2 ± 3.94 | 79 to 80 | – | –
O=Cc1ccc(OS(=O)(=O)c2ccc(C(F)(F)F)cc2)cc1 [Compound 3] | 89.26 ± 0.17 | 76.6 ± 3.55 | 115 ± 5.78 | 110 to 111 | – | –
COc1cccc(C=O)c1OS(=O)(=O)c1ccc(C(F)(F)F)cc1 [Compound 4] | 35.3 ± 1.15 | 10.3 ± 0.8 | 13.5 ± 1.64 | – | – | –
COc1ccc(C=O)c(OS(=O)(=O)c2ccc(C(F)(F)F)cc2)c1 [Compound 5] | 38.6 ± 2.81 | 11.2 ± 0.94 | 19.3 ± 2.71 | – | – | –
COc1ccc(C=O)cc1OS(=O)(=O)c1ccc(C(F)(F)F)cc1 [Compound 6] | 91 ± 2.26 | 16 ± 1.71 | 17.8 ± 0.53 | – | – | –
COc1cc(C=O)ccc1OS(=O)(=O)c1ccc(C(F)(F)F)cc1 [Compound 7] | 110 ± 5.97 | 71.6 ± 3.46 | 74 ± 4.34 | 112 to 113 | – | –
CCN(CC)c1ccc(C=O)c(OS(=O)(=O)c2ccc(C(F)(F)F)cc2)c1 [Compound 8] | 40.8 ± 5.68 | 28.8 ± 1.85 | 24.7 ± 1.9 | 114 to 116 | – | –
O=Cc1c(OS(=O)(=O)c2ccc(C(F)(F)F)cc2)ccc2ccccc12 [Compound 9] | 34.7 ± 2.21 | 14.8 ± 1.03 | 17.6 ± 0.62 | 129 to 131 | – | –
O=C(NN=Cc1ccccc1OS(=O)(=O)c1ccc(C(F)(F)F)cc1)c1ccncc1 [Compound 10] | 52.2 ± 3.52 | 139 ± 5.82 | 17.9 ± 0.51 | – | – | –
O=C(NN=Cc1cccc(OS(=O)(=O)c2ccc(C(F)(F)F)cc2)c1)c1ccncc1 [Compound 11] | 245 ± 5.79 | 80.1 ± 4.59 | 144 ± 4.18 | 189 to 190 | – | –
O=C(N/N=C/c1ccc(OS(=O)(=O)c2ccc(C(F)(F)F)cc2)cc1)c1ccncc1 [Compound 12] | > 300 | > 300 | > 300 | 208 to 209 | – | –
COc1cccc(C=NNC(=O)c2ccncc2)c1OS(=O)(=O)c1ccc(C(F)(F)F)cc1 [Compound 13] | > 300 | 214 ± 6.48 | 78.8 ± 3.15 | 198 to 199 | – | –
COc1ccc(C=NNC(=O)c2ccncc2)c(OS(=O)(=O)c2ccc(C(F)(F)F)cc2)c1 [Compound 14] | 26.6 ± 2.62 | 16.5 ± 1.54 | 28.4 ± 2.81 | 180 to 181 | – | –
COc1ccc(C=NNC(=O)c2ccncc2)cc1OS(=O)(=O)c1ccc(C(F)(F)F)cc1 [Compound 15] | 166 ± 6.71 | 97.4 ± 4.85 | 63.8 ± 5.32 | – | – | –
COc1cc(C=NNC(=O)c2ccncc2)ccc1OS(=O)(=O)c1ccc(C(F)(F)F)cc1 [Compound 16] | 183 ± 2.72 | 121 ± 5.71 | 72.8 ± 3.13 | 192 to 193 | – | –
CCN(CC)c1ccc(C=NNC(=O)c2ccncc2)c(OS(=O)(=O)c2ccc(C(F)(F)F)cc2)c1 [Compound 17] | 132 ± 5.46 | 57.6 ± 1.83 | 110 ± 5.09 | 141 to 142 | – | –
O=C(NN=Cc1c(OS(=O)(=O)c2ccc(C(F)(F)F)cc2)ccc2ccccc12)c1ccncc1 [Compound 18] | 15.75 ± 0.11 | 17.05 ± 0.09 | 37.4 ± 4.63 | – | – | –
N.N.[Cl][Pt][Cl] [cisplatin, reference compound] | – | – | – | – | 8.8 ± 0.51 | 26.7 ± 2.78

Reference: publication PMC11025081, “Design, Synthesis, and In Silico and In Vitro Cytotoxic Activities of Novel Isoniazid–Hydrazone Analogues Linked to Fluorinated Sulfonate Esters” (ACS Omega, 2024)
